Experimental findings from patent US20230357242A1, “COMPOUND AS AKT KINASE INHIBITOR” (CHIA TAI TIANQING PHARMACEUTICAL GROUP CO., LTD., priority 2020, published 2023) are described below.

For orientation: bioavailability means the share of a dose that reaches the circulation, judged against a reference dose that is usually intravenous. As a reminder, the AUC(0-inf) is the area under the concentration-time curve extrapolated to infinity. One may read the AUC(0-t) as the area under the concentration-time curve up to a stated or last time point. What is called Cmax is the highest concentration seen after dosing. The term Tmax denotes the time from dosing to the highest level. A word on the Vd: it is a proportionality between amount in the body and measured concentration, not a real space.

The nature of this data set: Pharmacokinetic evaluation in rats. The class given is in vivo. Details: Cl: unit not given here. The settings on record: SD rats; for bioavailability / AUC(0-inf) / AUC(0-t) / Cmax / Tmax / MRT last / Vd: rat, plasma; for bioavailability: oral, IG 10 mg/kg vs IV 1 mg/kg, read-out: Absolute bioavailability F %; for MRT last: read-out: MRT(0-t). How it is done: SD rats, weight 180-220 g, after adaption for 7 days, were randomly divided into 4 groups of 3 […], each group was intragastrically (IG) administered with compound 28 or compound 30 at a dose of 10 mg/kg, or intravenously (IV) administered with compound 28 or compound 30 at a dose of 1 mg/kg. The animals to be tested (SD rats) were fasted for 12 h before administration and food was provided 4 h after administration, and water was freely drunk before and after the experiment and during the experiment.
After intragastric administration, about 0.1 mL of blood was taken from eye sockets at 15 min, 30 min, 1 h, 2 h, 3 h, 4 h, 6 h, 8 h, 10 h, and 24 h; after intravenous injection, about 0.1 mL of blood was taken from eye sockets at 5 min, 10 min, 30 min, 1 h, 2 h, 4 h, 6 h, 8 h, 10 h, and 24 h; 3 rats were collected at each time point, whole blood was collected, placed in centrifuge tubes containing EDTA-K2, and stored at 4° C. within 1 h, and the plasma was separated off by centrifugation at 4° C. and 4000 rpm for 10 min. All the plasma samples were collected and immediately stored at −20° C. for testing. 30 μL of the plasma sample to be tested and a standard curve sample were pipetted and added with 300 μL of acetonitrile solution containing an internal standard (20 ng/mL diazepam), shaken and mixed well for 5 min, and centrifuged at 13,000 rpm for 10 min. 80 μL of supernatant was taken and diluted with 80 μL of ultrapure water. After being mixed well, 2 μL of the resulting sample was taken for liquid chromatography-mass determination, and a chromatogram was recorded.
Oral and intravenous exposure of the compound of the present application was evaluated by in vivo pharmacokinetic experiment in rats.

Like-named read-outs stand apart in the source and are kept apart here.

Regarding `CC(=O)N1CC2(C1)CN(c1cccc(-c3ccc4nc(-c5cccnc5N)n(-c5ccc(C6(N)CCC6)cc5)c4n3)c1F)C2` [Compound 28], the bioavailability stood at 25%. Also, the t1/2z (IG 10 mg/kg) is on record as 3.93 ± 1.46 h. Under “IV 1 mg/kg”, the Cl is 5.75 ± 0.146, the t1/2z was determined as 5.9 ± 2.11 h, the total exposure AUC(0-inf) amounted to 174 ± 4.37 ng·h/mL and the AUC(0-t) was found to be 145 ± 11.1 ng·h/mL. Besides, for the setting “IV 1 mg/kg”, the Vd was determined as 48.8 ± 16.8 L/kg and the MRT last was determined as 2.12 ± 0.099 h. Besides, for the setting “po, IG 10 mg/kg”, the AUC(0-inf) was determined as 372 ± 197 ng·h/mL, the exposure AUC(0-t) was determined as 362 ± 195 ng·h/mL, the highest concentration (Cmax) was 32.6 ± 12.4 ng/mL and the time of peak concentration (Tmax) amounted to 4.67 ± 1.15 h. Besides, the MRT last (po, IG 10 mg/kg) came out at 7.38 ± 0.43 h.

As to `Nc1ncccc1-c1nc2ccc(-c3cccc(N4CCC(N5CCCC5=O)CC4)c3F)nc2n1-c1ccc(C2(N)CCC2)cc1` [Compound 30], the bioavailability was 35.5%. The molecule also showed a t1/2z (IG 10 mg/kg) of 5.43 ± 1.82 h. Under “IV 1 mg/kg”, this molecule had a Cl of 7.23 ± 0.496, a t1/2z of 7.73 ± 0.440 h, an area under the curve AUC(0-inf) of 139 ± 9.21 ng·h/mL and an AUC(0-t) of 127 ± 9.69 ng·h/mL. For the setting “IV 1 mg/kg”, the Vd is 80.8 ± 8.9 L/kg and the MRT last was 5.57 ± 0.053 h. For the same molecule, where the note is “po, IG 10 mg/kg”, the area under the curve AUC(0-inf) worked out at 383 ± 106 ng·h/mL, the AUC(0-t) is 358 ± 109 ng·h/mL, the Cmax was 31.2 ± 8.8 ng/mL and the time of peak concentration (Tmax) amounted to 4.67 ± 1.15 h. The MRT last (po, IG 10 mg/kg) was 8.15 ± 0.73 h.
